{"source": "patent US9394446B2", "about": "“Method for recovering Ru complex dye from used dye solution” (Tanaka Kikinzoku Kogyo K.K., priority 2012, dated 2016)", "experiment": "Mixing/dissolving behaviour of DMSO in ethers (inventors' observation)", "format": "physicochemical", "data": [{"smiles": "C[S+](C)[O-]", "note": "[DMSO, dimethyl sulfoxide]", "values": [{"measurement": "mixing or dissolving in ethers (diethyl ether), in words", "result": "hardly mixed or dissolved"}]}]}
